Assays:
Assay in all cases: relative viability (nuclei count vs DMSO), 5 days (fraction); higher = more cells survive
COR-L 105 = tested on: COR-L 105
Procedure, shortened: (§1)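 One day after seeding in 1536-well plates, lung cancer cell lines were dosed by pin tool. Dosing was either single-drug or a fixed anchor-drug dose plus five library-drug doses (not always all listed) in √10 steps. After 5 days, nuclei were stained in one fix-and-stain step and counted on 4× images, and relative viability is the nuclei count of treated wells over that of vehicle wells, given as the median of duplicate plates.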

COR-L23 = tested on: COR-L23
Procedure, shortened: as §1

EKVX = tested on: EKVX
Procedure, shortened: as §1

HARA = tested on: HARA
Procedure, shortened: as §1

HOP-62 = tested on: HOP-62
Procedure, shortened: as §1

NCI-H1355 = tested on: NCI-H1355
Procedure, shortened: as §1

NCI-H1395 = tested on: NCI-H1395
Procedure, shortened: as §1

NCI-H1734 = tested on: NCI-H1734
Procedure, shortened: as §1

NCI-H1755 = tested on: NCI-H1755
Procedure, shortened: as §1

NCI-H1793 = tested on: NCI-H1793
Procedure, shortened: as §1

NCI-H1993 = tested on: NCI-H1993
Procedure, shortened: as §1

NCI-H2009 = tested on: NCI-H2009
Procedure, shortened: as §1

Compound: Clc1ccc(Nc2nnc(Cc3ccncc3)c3ccccc23)cc1 [Vatalanib] + Nc1ncn([C@H]2C[C@H](O)[C@@H](CO)O2)c(=O)n1 [Decitabine] (partner 2 µM)
- relative viability (COR-L 105; first compound 0.04 µM): 0.722
- relative viability (COR-L 105; first compound 0.1265 µM): 0.706
- relative viability (COR-L 105; first compound 0.4 µM): 0.796
- relative viability (COR-L 105; first compound 1.265 µM): 0.681
- relative viability (COR-L 105; first compound 4 µM): 0.714
- relative viability (COR-L23; first compound 0.04 µM): 0.503
- relative viability (COR-L23; first compound 0.1265 µM): 0.414
- relative viability (COR-L23; first compound 0.4 µM): 0.565
- relative viability (COR-L23; first compound 1.265 µM): 0.441
- relative viability (COR-L23; first compound 4 µM): 0.404
- relative viability (EKVX; first compound 0.04 µM): 0.41
- relative viability (EKVX; first compound 0.1265 µM): 0.346
- relative viability (EKVX; first compound 0.4 µM): 0.308
- relative viability (EKVX; first compound 1.265 µM): 0.338
- relative viability (EKVX; first compound 4 µM): 0.296
- relative viability (HARA; first compound 0.04 µM): 0.623
- relative viability (HARA; first compound 0.1265 µM): 0.446
- relative viability (HARA; first compound 0.4 µM): 0.463
- relative viability (HARA; first compound 1.265 µM): 0.526
- relative viability (HARA; first compound 4 µM): 0.521
- relative viability (HOP-62; first compound 0.04 µM): 0.183
- relative viability (HOP-62; first compound 0.1265 µM): 0.216
- relative viability (HOP-62; first compound 0.4 µM): 0.223
- relative viability (HOP-62; first compound 1.265 µM): 0.239
- relative viability (HOP-62; first compound 4 µM): 0.205
- relative viability (NCI-H1355; first compound 0.04 µM): 0.393
- relative viability (NCI-H1355; first compound 0.1265 µM): 0.328
- relative viability (NCI-H1355; first compound 0.4 µM): 0.343
- relative viability (NCI-H1355; first compound 1.265 µM): 0.33
- relative viability (NCI-H1355; first compound 4 µM): 0.356
- relative viability (NCI-H1395; first compound 0.04 µM): 0.718
- relative viability (NCI-H1395; first compound 0.1265 µM): 0.702
- relative viability (NCI-H1395; first compound 0.4 µM): 0.722
- relative viability (NCI-H1395; first compound 4 µM): 0.665
- relative viability (NCI-H1734; first compound 0.04 µM): 0.575
- relative viability (NCI-H1734; first compound 0.1265 µM): 0.51
- relative viability (NCI-H1734; first compound 0.4 µM): 0.592
- relative viability (NCI-H1734; first compound 1.265 µM): 0.477
- relative viability (NCI-H1734; first compound 4 µM): 0.518
- relative viability (NCI-H1755; first compound 0.04 µM): 0.691
- relative viability (NCI-H1755; first compound 0.1265 µM): 0.76
- relative viability (NCI-H1755; first compound 0.4 µM): 0.745
- relative viability (NCI-H1755; first compound 1.265 µM): 0.707
- relative viability (NCI-H1755; first compound 4 µM): 0.728
- relative viability (NCI-H1793; first compound 0.04 µM): 0.374
- relative viability (NCI-H1793; first compound 0.1265 µM): 0.463
- relative viability (NCI-H1793; first compound 0.4 µM): 0.599
- relative viability (NCI-H1793; first compound 1.265 µM): 0.499
- relative viability (NCI-H1793; first compound 4 µM): 0.463
- relative viability (NCI-H1993; first compound 0.04 µM): 0.57
- relative viability (NCI-H1993; first compound 0.1265 µM): 0.607
- relative viability (NCI-H1993; first compound 0.4 µM): 0.541
- relative viability (NCI-H1993; first compound 1.265 µM): 0.488
- relative viability (NCI-H1993; first compound 4 µM): 0.495
- relative viability (NCI-H2009; first compound 0.04 µM): 0.378
- relative viability (NCI-H2009; first compound 0.1265 µM): 0.334
